Measurements taken from the PolyMetriX glass transition set.
± gives the standard deviation of the reports.

glass transition temperature [°C] | SMILES
250.00 | *c1ccc2c(c1)C(=O)N(c1cc(C(=O)Nc3cccc4c(NC(=O)c5ccc(C)c(N6C(=O)c7ccc(C(*)(C(F)(F)F)C(F)(F)F)cc7C6=O)c5)cccc34)ccc1C)C2=O (repeat unit)
217.00 | *c1ccc(Oc2ccc(-c3ccc(Oc4ccc(N5C(=O)c6ccc(Oc7ccc(C(c8ccc(Oc9ccc%10c(c9)C(=O)N(*)C%10=O)cc8)(C(F)(F)F)C(F)(F)F)cc7)cc6C5=O)cc4)cc3)cc2)cc1 (repeat unit)
271.00 | *c1ccc(Oc2cccc(Oc3ccc(N4C(=O)c5ccc(-c6ccc7c(c6)C(=O)N(*)C7=O)cc5C4=O)cc3)c2C#N)cc1 (repeat unit)
98.00 | *CC(*)(C)C(=O)OCCCCCCOc1ccc(C(=O)Oc2ccc(C(=O)/C=C/c3c(C)c4ccccc4n3C)cc2)cc1 (repeat unit)
230.00 | *c1c(C)cc(C(C)(C)c2cc(C)c(S(*)(=O)=O)c(C)c2)cc1C (repeat unit)
214.00 | *Oc1ccc(-c2ccc(Oc3ccc(Oc4ccc(S(=O)(=O)c5ccc(Oc6ccc(*)cc6)cc5)cc4)cc3)c3ccccc23)c2ccccc12 (repeat unit)
199.00 | *CC1CCCC(CN2C(=O)c3ccc(Oc4ccc5c(c4)C(=O)N(*)C5=O)cc3C2=O)C1 (repeat unit)
192.00 | *Oc1ccc(-c2ccc(-c3ccc(Oc4ccc(C(C)(C)c5ccc(*)cc5)cc4)c(C(F)(F)F)c3)cc2)cc1C(F)(F)F (repeat unit)
335.00 | *C(=O)Oc1ccc(C(c2ccc(OC(=O)c3ccc4c(c3)C(=O)N(c3c(C)cc(-c5cc(C)c(N6C(=O)c7ccc(*)cc7C6=O)c(C)c5)cc3C)C4=O)cc2)(C(F)(F)F)C(F)(F)F)cc1 (repeat unit)
287.00 | *Oc1ccc(C2(c3ccc(OC(=O)c4cccc(C(*)=O)c4)c(C)c3)c3ccccc3-c3ccccc32)cc1C (repeat unit)
-68.90 | *O[Si](*)(CCCOCCOCCOCCOCCOCCOCCOC)CCCOCCOCCOCCOCCOCCOCCOC (repeat unit)
78.60 | *CC(*)c1ccc(-c2ccc3c(c2)C(CCCCCC)(CCCCCC)c2cc(-c4ccc5c(c4)C(CCCCCC)(CCCCCC)c4ccccc4-5)ccc2-3)cc1 (repeat unit)
7.00 | *CC(C)(CO*)COCCCCCCCCCCOc1ccc(-c2ccc(C#N)cc2)cc1 (repeat unit)
92.00 | *Nc1ccc(*)cc1OCCCCCCCCCCCCCCCC (repeat unit)
28.00 | *CC(Cc1ccc(-c2ccccc2)cc1)C[Si](*)(C)C (repeat unit)
90.90 | *CC(OC(=O)Oc1ccc(C(=O)OC)cc1)C(COC(=O)O*)OC(=O)Oc1ccc(C(=O)OC)cc1 (repeat unit)
85.00 | *CC(*)(C)C(=O)OCCCCCCOc1ccc(C(=O)Oc2ccc(C(=O)/C=C/c3c(C)c4ccccc4n3CCCC)cc2)cc1 (repeat unit)
223.00 | *Oc1ccc(C2(c3ccc(Oc4ccc(C(=O)c5cccc(C(=O)c6ccc(*)cc6)c5)cc4)cc3)c3ccccc3-c3ccccc32)cc1 (repeat unit)
188.80 | *Cc1cc(C23CC4CC(CC(C4)C2)C3)cc(CN(*)C)c1O (repeat unit)
150.00 | *Oc1ccc(NC(=O)CCCCC(=O)Nc2ccc(OC3COC4C(*)COC34)cc2)cc1 (repeat unit)
78.00 | *C(=O)OC1CC(*)N(C(=O)OCc2ccccc2)C1 (repeat unit)
320.00 | *c1ccc(Oc2ccc(-c3ccc(Oc4ccc(-c5nnc(*)c6c(-c7ccc(F)cc7)c(-c7ccc(F)cc7)c(-c7ccc(F)cc7)c(-c7ccc(F)cc7)c56)cc4)cc3)cc2)cc1 (repeat unit)
185.00 | *c1ccc(Oc2ccc(C(C)(C)c3ccc(Oc4ccc(-c5ncc(*)o5)cc4C(F)(F)F)cc3)cc2)c(C(F)(F)F)c1 (repeat unit)
125.00 | *Oc1ccc2cc(OC(=O)c3ccc(-c4ccc(C(*)=O)cc4)cc3-c3ccccc3)ccc2c1 (repeat unit)

glass transition temperature [°C] | SMILES
169.00 | *Oc1ccc(Nc2ccc(/N=N/c3ccc(Nc4ccc(*)cc4)cc3)cc2)cc1 (repeat unit)
250.00 | *C(=O)Nc1ccc(Oc2ccc(NC(=O)c3ccc4c(c3)C(=O)N(C3CCC(CC5CCC(N6C(=O)c7ccc(*)cc7C6=O)CC5)CC3)C4=O)cc2)cc1 (repeat unit)
46.00 | *CC(*)(C)C(=O)OCCCCCCOc1ccc(C(=O)Oc2ccc(/N=N/c3ccc(Br)cc3)c3ccccc23)cc1 (repeat unit)
235.50 | *Oc1ccc(C2(c3ccc(OC(*)=O)cc3)CC(C)CC(C)(C)C2)cc1 (repeat unit)
249.00 | */C(C#N)=C(\C#N)N1C(=O)c2ccc(C(=O)c3ccc(-c4ccc5c(c4)C(=O)N(*)C5=O)cc3)cc2C1=O (repeat unit)
216.00 | *c1ccc2c(c1)C(=O)N(c1ccc(Sc3ccc(Sc4ccc(Sc5ccc(Sc6ccc(N7C(=O)c8ccc(C(*)(C(F)(F)F)C(F)(F)F)cc8C7=O)cc6)cc5)cc4)cc3)cc1)C2=O (repeat unit)
1.00 | *CC(COC(=O)CCCCCN1C(=O)C2C3C=CC(C3)C2C1=O)O* (repeat unit)
105.00 | *CC(C)(C)CS(=O)(=O)CC(C)(C)COC(=O)c1ccc(C(=O)O*)cc1 (repeat unit)
194.00 | *OC(=O)Oc1ccc(C(C)(C)c2ccc(OC(=O)OC3CC4CC(*)CC(C3)O4)cc2)cc1 (repeat unit)
38.00 | */C=C/c1cc(OCCCCCCCCCCCC)c(/C=C/c2ccc(*)cc2)cc1OCCCCCCCCCCCC (repeat unit)
345.00 | *c1ccc(-c2nc3cc(Oc4ccc(NC(=O)c5cc(C(=O)Nc6ccc(Oc7ccc8nc(-c9ccccc9)c(-c9ccc(N%10C(=O)c%11ccc%12c%13c(ccc(c%11%13)C%10=O)C(=O)N(*)C%12=O)cc9)nc8c7)cc6)cc(N6C(=O)c7c(Cl)c(Cl)c(Cl)c(Cl)c7C6=O)c5)cc4)ccc3nc2-c2ccccc2)cc1 (repeat unit)
34.00 | *Oc1ccc(CC(NC(=O)CCc2ccc(OC(=O)CCC(*)=O)cc2)C(=O)OCCOCCOCC)cc1 (repeat unit)
110.00 | *CC(COc1ccc(C(C)(c2ccccc2)c2ccc(O*)cc2)cc1)OC(C)=O (repeat unit)
200.00 | *Nc1ccc(Nc2ccc(C(O)(c3ccccc3)c3ccc(C(O)(c4ccccc4)c4ccc(*)cc4)cc3)cc2)cc1 (repeat unit)
60.00 | *CCCOCCCCOCCCN1C(=O)c2ccc(C(=O)Oc3ccc(C(C)(C)c4ccc(OC(=O)c5ccc6c(c5)C(=O)N(*)C6=O)cc4)cc3)cc2C1=O (repeat unit)
92.00 | *CC(*)c1ccccc1C(=O)OCCCCC (repeat unit)
281.00 | *c1ccc2c(c1)C(=O)N(c1ccc(C(=O)Nc3ccc(Oc4ccccc4Oc4ccc(NC(=O)c5ccc(N6C(=O)c7ccc(C(*)(C(F)(F)F)C(F)(F)F)cc7C6=O)cc5)cc4)cc3)cc1)C2=O (repeat unit)
50.58 ± 12 | *CCCCCCNC(=O)CCCCCCCC(=O)N* (repeat unit) [Poly(hexamethylene azelamide)]
290.00 | *Nc1ccc(-c2c(-c3ccccc3)cc(-c3ccc(-c4cc(-c5ccccc5)c(-c5ccc(NC(=O)c6ccc(C(*)=O)cc6)cc5)c(-c5ccccc5)c4)cc3)cc2-c2ccccc2)cc1 (repeat unit)
94.50 | *CC(*)(CC(=O)Oc1ccc(OCCC)cc1)C(=O)Oc1ccc(OCCC)cc1 (repeat unit)
219.00 | *Oc1c(-c2ccccc2)cc(*)cc1-c1cccc(C)c1 (repeat unit)
140.00 | *c1cccc(NC(=O)CCCCC(=O)Nc2cccc(S(*)(=O)=O)c2)c1 (repeat unit)
280.00 | *c1ccc(NC(=O)c2cc(NC(=O)c3ccc(OC(C)=O)cc3)cc(C(=O)Nc3ccc(-c4nnc(*)o4)cc3)c2)cc1 (repeat unit)
90.00 | *Oc1ccc(C(C)(C)c2ccc(OC(=O)SCCCSC(*)=O)cc2)cc1 (repeat unit)

SMILES | glass transition temperature [°C]
*CC(*)(C)C(=O)OCCOCC (repeat unit) | -16.00
*CC(F)(F)/C(F)=C(/*)Cl (repeat unit) | -17.00
*N=P(N=P(N=S(*)(=O)NCCCC)(NCCCC)NCCCC)(NCCCC)NCCCC (repeat unit) | -16.00
*CC(C)(C)C1C(=O)N(C)C(=O)C1* (repeat unit) | 156.50
*CC1CCC(COP(=O)(/N=N/c2ccc(C(=O)c3ccc(/N=N/P(=O)(O*)OC)cc3)cc2)OC)CC1 (repeat unit) | 52.00
*CCN(*)C(=O)C1CC1 (repeat unit) | 77.00
*CC(O)C(O)COC(=O)O* (repeat unit) | 39.60
*Oc1c(C)cc(*)cc1C (repeat unit) | 212.00
*CC(*)C(F)(F)C(F)(F)F (repeat unit) [Poly[(pentafluoroethyl)ethylene] ] | 41 ± 0.6
*c1cccc(Oc2ccc(P(=O)(c3ccccc3)c3ccccc3)c(Oc3cccc(N4C(=O)c5ccc(-c6ccc7c(c6)C(=O)N(*)C7=O)cc5C4=O)c3)c2)c1 (repeat unit) | 234.00
*OS(=O)(=O)c1cc(C)c(*)c(C)c1 (repeat unit) | 153.00
*CCC1C(=O)N(C)C(=O)C1* (repeat unit) | 141.20
*CCN(*)C(=O)c1c(F)cccc1F (repeat unit) | 121.50
*CC(*)(C)CC (repeat unit) [Poly(2-methylbutene)] | -11.58 ± 9.3
*CC(CO*)(CS(C)(=O)=O)CS(C)(=O)=O (repeat unit) | 126.00
*c1cccc(P(=O)(c2ccc(C(F)(F)F)cc2)c2cccc(-n3c(=O)c4c(-c5ccccc5)c5c(=O)n(*)c(=O)c5c(-c5ccccc5)c4c3=O)c2)c1 (repeat unit) | 337.00
